Measurements as given in patent US9670197B2, “Small molecule modifiers of the Hec1-Nek2 interaction in G2/M” (The Regents of the University of California, priority 2013, dated 2017).
Where a SMILES comes first, the peptide text is derived from it. The star is where a group is joined. Cbz = O=C(OCc1ccccc1)*

Key:
HeLa = experiment: Cancer cell growth inhibition, HeLa; assay type: cell-based; details: Homo sapiens; Table 1, HeLa; read-out: HeLa IC50
Protocol: Cell lines and establishment of stable cell lines. Human breast cancer cell lines MDA-MB-231 and MDA-MB-468, osteosarcoma line U20S, cervical adenocarcinoma line HeLa, and normal skin fibroblast Hs27 were maintained in DMEM medium (Invitrogen, Grand Island, N.Y.) supplemented 10% fetal bovine serum (FBS) and 1% penicillin-streptomycin. The leukemia cell line K562 and glioblastoma cell line T98G were grown in RPMI 1640 supplemented 10% FBS and 1% penicillin-streptomycin. Normal mammary gland epithelial cell line MCF10A was cultured in DMEM/F12 (50:50) plus 5% horse serum, 0.1 μg/mL cholera toxin, 10 μg/mL insulin, 0.5 μg/mL hydrocortisone, and 20 ng/mL epidermal growth factor. To establish MDA-MB-468 cells that stably expressed each individual GFP-Hec1 deletion construct described above, cells were infected with retrovirus expressing GFP-Hec1 WT, GFP-Hec1 W395A and GFP-Hec1 WLK/AAA, and were selected with 2 μg/ml puromycin.

MB468 = experiment: Cancer cell growth inhibition, MB468 (MDA-MB-468); assay type: cell-based; details: Homo sapiens, Table 1, MB468, read-out: MB468 IC50
cancer cell lines = experiment: Cancer cell growth inhibition; assay type: cell-based
Nek2 = Nek2 protein level in treated HeLa cells, western blot; assay type: cell-based; details: co-treatment with INH41 or INH154
Protocol: INH-induced Nek2 degradation; INH-inhibition of Hec1 phosphorylation by Nek2. […] To evaluate whether INH treatment affected cell cycle profile or Nek2 mRNA level, we performed FACS and real-time PCR analysis.
Protein extraction and western blot analysis. The protein extractions and western blot analyses of Examples 4-6 were conducted as follows. Cell extracts were prepared and equal amounts of protein were separated by SDS-PAGE (10% w/v gel) followed by electrophoretic transfer to PVDF membranes (Millipore, Billerica, Mass.). After blocking with 5% w/v powdered non-fat milk, the membrane was incubated with different antibodies for overnight at 4° C. and treated for 1 hr with horseradish peroxidase-conjugated goat anti-mouse IgG and goat anti-rabbit IgG antibodies (GeneTex, Irvine, Calif.). ECL detection of the horseradish peroxidase reaction was performed according to the manufacturer's instructions (Millipore, Billerica, Mass.). Protein signal was measured on a LAS 4000 mini Imaging System (Fujifilm, Valhalla, N.Y.).

Hec1 = experiment: Biotin-conjugated INH pull-down of Hec1 and Hec1 mutants; assay type: binding

Compound	IC50 (HeLa) [nM]	IC50 (MB468) [nM]	inhibition of cancer cell growth, IC50 (in words) (cancer cell lines)	effect on INH-induced degradation of Nek2 (Nek2)	binding of Hec1 W395A and W395A/L399A/K400A mutants (Hec1)
Cc1cc(F)cc(C)c1-c1csc(NC(=O)c2ccncc2)n1 [INH80, N-(4-(4-fluoro-2,6-dimethylphenyl)thiazol-2-yl)isonicotinamide]	2000	4400	–	–	–
Cc1cc([N+](=O)[O-])cc(C)c1-c1csc(NC(=O)c2ccncc2)n1 [INH78, N-(4-(2,6-Dimethyl-4-nitrophenyl)thiazol-2-yl)isonicotinamide]	630	1400	sub-micromolar IC50	–	–
COc1cncc(Oc2cc(C)c(-c3csc(NC(=O)c4ccncc4)n3)c(C)c2)n1 [INH81, N-(4-(4-((6-methoxypyrazin-2-yl)oxy)-2,6-dimethylphenyl)thiazol-2-yl)isonicotinamide]	1400	400	sub-micromolar IC50	–	–
Cc1cc(O)cc(C)c1-c1csc(NC(=O)c2ccncc2)n1 [INH182, N-(4-(4-hydroxy-2,6-dimethylphenyl)thiazol-2-yl)isonicotinamide]	3500	2000	–	–	–
Cc1cc(N2C(=O)CCC2=O)cc(C)c1-c1csc(NC(=O)c2ccncc2)n1 [INH160, N-(4-(4-(2,5-dioxopyrrolidin-1-yl)-2,6-dimethylphenyl)thiazol-2-yl)isonicotinamide]	5000	3300	–	–	–
Cc1cc(C#N)cc(C)c1-c1csc(NC(=O)c2ccncc2)n1 [INH174, N-(4-(4-Cyano-2,6-dimethylphenyl)thiazol-2-yl)isonicotinamide]	600	500	sub-micromolar IC50	–	–
Cc1cc(N2CCN(C)CC2)cc(C)c1-c1csc(NC(=O)c2ccncc2)n1 [INH212, N-(4-(2,6-dimethyl-4-(4-methylpiperazin-1-yl)phenyl)thiazol-2-yl)isonicotinamide]	2500	2400	–	–	–
Cc1cc(NC(=O)C2CC2)cc(C)c1-c1csc(NC(=O)c2ccncc2)n1 [INH136, N-(4-(4-((cyclopropylcarbonyl)amino)-2,6-dimethylphenyl)thiazol-2-yl)isonicotinamide]	1500	3400	–	–	–
Cc1cc(NCC(=O)O)cc(C)c1-c1csc(NC(=O)c2ccncc2)n1 [INH156, N-(4-(2-(Isonicotinamido)thiazol-4-yl)-3,5-dimethylphenyl)-glycine]	2400	9400	–	–	–
CC(C)C[C@@H](C=O)NC(=O)[C@H](CC(C)C)NC(=O)[C@H](CC(C)C)NC(=O)OCc1ccccc1 [MG132, reference compound] (Cbz-Leu-Leu-Leu-aldehyde)	–	–	–	prevented INH-induced degradation of Nek2	–
Cc1cc(NC(=O)CCC(=O)O)cc(C)c1-c1csc(NC(=O)c2ccncc2)n1 [INH146, 4-(4-(2-(isonicotinamido)thiazol-4-yl)-3,5-dimethylphenylamino)-4-oxobutanoic acid]	> 5000	> 10000	–	–	–
Cc1cc(N)cc(C)c1-c1csc(NC(=O)c2ccncc2)n1 [INH79, N-(4-(4-amino-2,6-dimethylphenyl)thiazol-2-yl)isonicotinamide]	2300	3200	–	–	–
Cc1cc(N2CCOCC2)cc(C)c1-c1csc(NC(=O)c2ccncc2)n1 [INH168]	200	120	sub-micromolar IC50	–	–
COc1cc(C)cc(C)c1-c1csc(NC(=O)c2ccncc2)n1 [INH56]	1800	4500	–	–	–
Cc1cc(N2CCC(OCCOCCOCCOCCNC(=O)CCCC[C@@H]3SC[C@@H]4NC(=O)N[C@@H]43)CC2)cc(C)c1-c1csc(NC(=O)c2ccncc2)n1 [biotin-INH154, N-(4-(2,6-dimethyl-4-(4-((13-oxo-17-((3aS,4S,6aR)-2-oxohexahydro-1H-thieno [3,4-d]imidazol-4-yl)-3,6,9-trioxa-12-azaheptadecyl)oxy)piperidin-1-yl)phenyl)thiazol-2-yl)isonicotinamide]	–	–	–	–	neither mutant was able to bind
